Measurements from PubChem BioAssay AID687022 (Broad Institute, 2013).
Calls of active or inactive are those of the source.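 The calls were made as follows: active = Fitted curve of melting temperature shift crosses the 1.0 threshold at or below the sample's highest valid tested concentration; inconclusive = Flat fit with activity 30 to 70, or invalid fit; inactive = Opposite direction, flat within 30, or no crossing.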

Target: Fibroblast growth factor 22 (Homo sapiens) (UniProt Q9HCT0)
Experiment: binders of human FGF22 protein, dose response, FGF22 synaptogenesis inhibitor project, biophysical, thermal shift, cherry-pick (AID 687022)
Details: recombinant FGF22 thermal shift, SYPRO orange melting

Chain of Fibroblast growth factor 22 (Homo sapiens) (Q9HCT0 whole entry, looked up): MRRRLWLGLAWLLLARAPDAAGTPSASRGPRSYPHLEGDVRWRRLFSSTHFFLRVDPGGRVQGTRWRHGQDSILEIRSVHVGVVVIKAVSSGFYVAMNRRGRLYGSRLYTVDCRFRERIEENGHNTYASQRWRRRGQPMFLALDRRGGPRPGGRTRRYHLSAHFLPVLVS

SMILES	AbsAC1 (concentration giving Tm-shift threshold 1.0)
COc1ccc(NC(=O)N[C@H]2CC[C@@H](CCn3cc(-c4ccc(OC)cc4)nn3)O[C@@H]2CO)cc1	> 42 µM (inactive)
COc1ccc(/C=N/NC(=O)c2cc(-c3ccc4c(c3)OCO4)n[nH]2)cc1OC	18.1 µM
Cc1ccc(NC(=O)c2sc3ncn(CC(=O)N4CCN(c5ccccn5)CC4)c(=O)c3c2C)cc1F	10.6 µM
O=C(Cc1n[nH]c(=O)[nH]c1=O)N/N=C/c1c(O)ccc2ccccc12	9.89 µM
CN1C(=O)c2cc(NC(=O)c3cccc(F)c3)ccc2OC[C@H]2O[C@@H](CC(=O)NCc3ccccc3)CC[C@H]21	3.24 µM
COc1nsnc1NS(=O)(=O)c1ccc(NC(=S)NC(=O)c2cccnc2)cc1	8.95 µM
O=C(N/N=C/c1ccncc1)c1cccc(N/N=C/c2ccncc2)c1	8.51 µM
CCn1ccnc1CN(C)C(=O)c1ccc2nc(Cc3ccc(OC)cc3)oc2c1	11.9 µM
Cn1ncc2c(Nc3ccc(Cl)c(Cl)c3)ncnc21	24.9 µM
O=C(Nc1nccs1)C1CC(=O)N(c2ccc(F)cc2)C1 (stereo not given)	8.93 µM
COc1cc(-c2nc(C)c(C(C)=O)n2O)ccc1OCC(=O)Nc1ccc(Cl)cc1	10.9 µM
Nc1nc(O)c(Sc2ccccc2[N+](=O)[O-])c(=O)[nH]1	2.7 µM
Cc1cc(C)n(-c2ccc(C(=O)Nc3ccc(S(=O)(=O)N(C)C)cc3)cc2)n1	9.32 µM
Cn1cc([N+](=O)[O-])c(C(=O)Nc2ccc3nc(-c4ccccc4)[nH]c3c2)n1	16 µM
CC(=O)Nc1ccc(S(=O)(=O)Nc2nc3ccc([N+](=O)[O-])cc3s2)cc1	23 µM
CC(=O)Nc1ccc(NC(=O)Nc2ccccc2)cc1	2.14 µM
O=C(Nc1nc(-c2ccccn2)cs1)c1cccc(S(=O)(=O)N2CCOCC2)c1	9.23 µM
CC1(C(=O)NS(=O)(=O)Cc2cccc(Cl)c2)CCN1C(=O)C1(c2ccc(Cl)cc2)CCC1 (stereo not given)	> 10 µM (inactive)
O=C(O)C[C@@H]1C[C@H]2c3cc(NC(=O)Nc4ccc(C(F)(F)F)cc4)ccc3O[C@H]2[C@@H](CO)O1	> 10 µM (inactive)
CCOC(=O)N1CCN(C(=O)CCCCCn2c(=S)[nH]c3ccsc3c2=O)CC1	13.8 µM

SMILES	AbsAC1 (concentration giving Tm-shift threshold 1.0)
CC(=O)Nc1cccc(C(=O)N/N=C/c2c[nH]c3ccccc23)c1	2.4 µM
O=C(N/N=C/c1ccc(OCc2ccccc2)cc1)c1ccc(O)cc1	3.59 µM
Oc1cc(O)cc(C=Cc2ccc(O)c(O)c2)c1	11.9 µM
COc1ccc([N+](=O)[O-])cc1/C=N/Nc1nn[nH]n1	6.12 µM
COc1cccc(NC(=O)N(C)C[C@@H]2Oc3cc(-c4ccccc4F)ccc3S(=O)(=O)N([C@@H](C)CO)C[C@H]2C)c1	16.3 µM
O=C(N/N=C/c1c[nH]c2ccc(Br)cc12)C1CC1	7.7 µM
O=S(=O)(Nc1nnc(C(F)(F)F)s1)c1ccc(Cl)cc1	3.42 µM
COc1cc(OC)cc(C(=O)Nc2ccc(S(=O)(=O)Nc3nc(C)cc(C)n3)cc2)c1	15.5 µM
CCc1ccc(N2CC(C(=O)OCC(=O)Nc3ccc(C(C)=O)cc3)CC2=O)cc1 (stereo not given)	17.7 µM
Cc1ccc(NC(=O)O/N=C/c2cccc([N+](=O)[O-])c2)cc1	17.8 µM
Cc1ccc2nc(-c3ccc(NC(=O)COCC(=O)O)cc3)sc2c1	3.64 µM
N/C(=N\OCC(=O)Nc1ccc(F)c(Cl)c1)c1ccccc1	4.58 µM
CC(=O)c1ccc(NC(=O)c2noc(C(C)C)c2[N+](=O)[O-])cc1	3.85 µM
O=C(O)Cn1cc(/C=N/NC(=O)c2cc3cc(Br)ccc3o2)c2ccccc21	6.74 µM
Cc1nc2c(C)cccc2cc1C(=O)N/N=C/c1ccc(O)cc1	14.8 µM
C/C=C/c1ccc2c(c1)O[C@H](CN(C)C(=O)Nc1cc(F)ccc1F)[C@H](C)CN([C@H](C)CO)S2(=O)=O	> 42 µM (inactive)
Cc1cccc(NC(=O)c2ccc(-c3ccccc3[N+](=O)[O-])o2)c1	> 38 µM (inactive)
C/C(=N\NC(=O)c1ccc(NS(=O)(=O)c2cccs2)cc1)c1cccs1	3.06 µM
Cc1[nH]c2ccc(C(=O)OCC(=O)Nc3cccc(S(N)(=O)=O)c3)cc2c1C	2.86 µM
Cc1noc(NS(=O)(=O)c2ccc(NC(=O)c3cccc(S(=O)(=O)N(C)c4ccccc4)c3)cc2)c1C	4.7 µM

SMILES	AbsAC1 (concentration giving Tm-shift threshold 1.0)
COc1ccccc1NC(=O)c1ccc(NC(=O)c2ccc(=O)[nH]c2)cc1	4.02 µM
O=C(Nc1cccc(C(F)(F)F)c1)c1cccc(NS(=O)(=O)c2ccc(O)c(C(=O)O)c2)c1	2.6 µM
Oc1ccc(-c2nc3ccccc3s2)c(O)c1	5.15 µM
CO[C@@H](CN(C)S(=O)(=O)c1cccc(Cl)c1)[C@@H](C)CN([C@H](C)CO)S(=O)(=O)c1cccc(Cl)c1	10.3 µM
COC(=O)CN1C(=S)N(c2ccc(F)cc2)C(=O)C1CC(=O)Nc1ccccc1 (stereo not given)	16.1 µM
O=C(N/N=C/c1ccncc1)c1cccc(NC(=O)c2ccc(Cl)cc2)c1	9.27 µM
CC(=O)c1c(C)nc(-c2ccc(OCC(=O)Nc3cccc(C)c3C)cc2)n1O	29.7 µM
CCc1nnc(NS(=O)(=O)c2ccc(Nc3ccc([N+](=O)[O-])c4nonc34)cc2)s1	> 5 µM (inactive)
O=[N+]([O-])c1cc(CS(=O)(=O)Oc2ccc(Cl)cc2)c(O)c([N+](=O)[O-])c1	> 5 µM (inactive)
Cn1c(C(=O)NCCc2c[nH]c3ccccc23)cc2sccc21	2.76 µM
Oc1ccc(-c2nnc(Nc3cccc(O)c3)c3ccccc23)cc1	5.28 µM
Cc1ccc(OCCCC(=O)Nc2ccc(S(=O)(=O)N3CCOCC3)cc2)cc1	2.45 µM
COc1ccc(-c2nc3ccc([N+](=O)[O-])cc3[nH]2)cc1	1.99 µM
C[C@@H]1CN([C@H](C)CO)S(=O)(=O)c2ccc(-c3ccncc3)cc2O[C@@H]1CN(C)C(=O)Nc1ccc(C(F)(F)F)cc1	15.3 µM
COc1ccccc1-c1ccc2c(c1)O[C@@H](CN(C)C(=O)Nc1cccc(F)c1)[C@H](C)CN([C@@H](C)CO)S2(=O)=O	20.6 µM
O=C(Nc1ccccc1)O/N=C/c1ccc(F)cc1	20.3 µM
O=C(Nc1ccc(F)cc1)N[C@H]1CC[C@@H](CCn2cc(-c3ccccc3F)nn2)O[C@@H]1CO	7.38 µM
O=C(NCc1ccc(Cl)cc1)c1n[nH]c([N+](=O)[O-])c1Cl	5.18 µM
O=C(N/N=C/c1ccc([N+](=O)[O-])cc1)c1c[nH]c2ccccc12	20 µM
COc1ccc(C(=O)Nc2nc(CC(=O)NCCc3ccccc3)cs2)cc1	11.3 µM
